In patent US20240317758A1 (Halia Therapeutics, Inc., priority 2021, published 2024):

How the values were obtained:
[1] = target: T1, full-length recombinant human NEK7 (Homo sapiens, UniProt Q8TDX7); experiment: NEK7 enzymatic assay; format: biochemical; settings: recombinant human NEK7, casein substrate, radiolabelled ATP
T1 construct: full-length recombinant human NEK7; GST (N); purchased SignalChem NO9-10G; host or cells: Sf9 insect cells (baculovirus)
How it was run: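 Full-length GST-tagged human NEK7 from Sf9 cells (assay concentration 70 nM) was used with casein (assay concentration 20 μM) in Hepes pH 7.5 buffer, 1% DMSO, and compound (3-fold dilutions, 10 μM to 0.5 nM) was preincubated 20 min at room temperature. Radiolabelled ATP was added for 2 h, phosphorylation was read on P81 paper, and IC50 was fitted from % activity remaining versus vehicle.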

IL-1β release = IL-1β release assay (THP-1 cells, PMA, LPS, nigericin); format: cell-based; settings: Homo sapiens, LPS 250 ng/mL, nigericin 20 μM, cleaved IL-1β in media
Procedure: Approximately 1.5 million THP-1 cells were plated in each well of a 6-well TC plate and incubated with 40 nM PMA in RPMI (10% FBS, 1% Penstrep) for 24 hours. The media was then removed and cells were rested in RPMI (10% FBS, 1% Penstrep) for 24 hours after which time the media was removed and cells were pre-treated for 2 hours with various concentrations of compounds of interest (typically serial 3-fold dilution in RPMI+5% FBS, concentrations ranging from 1 μM to 0.5 nM) in RPMI (5% FBS). The media was again removed and cells were incubated with 250 ng/mL LPS and compounds of interest (concentrations as above) in RMPI (5% FBS) for 2 hours. The media was removed for a last time and cells were incubated with 20 μM nigericin and compounds of interest (concentrations as above) in Opti-MEM for 30 minutes. Cell media was then collected and the amount of cleaved IL-1β was determined using a JESS instrument (Protein Simple) and standard protocols. Cleaved Il-1β antibody was obtained from Cell Signaling (catalogue #83186S) and was used at 1:20 dilution in antibody diluent 2. Protein Simple 1× anti-Rabbit HRP secondary antibody was used along with Protein Simple luminol and peroxide for chemiluminescent detection. Primary antibody incubation time was increased from 30 minutes to 60 minutes.

T1 sequence (Q8TDX7 whole entry): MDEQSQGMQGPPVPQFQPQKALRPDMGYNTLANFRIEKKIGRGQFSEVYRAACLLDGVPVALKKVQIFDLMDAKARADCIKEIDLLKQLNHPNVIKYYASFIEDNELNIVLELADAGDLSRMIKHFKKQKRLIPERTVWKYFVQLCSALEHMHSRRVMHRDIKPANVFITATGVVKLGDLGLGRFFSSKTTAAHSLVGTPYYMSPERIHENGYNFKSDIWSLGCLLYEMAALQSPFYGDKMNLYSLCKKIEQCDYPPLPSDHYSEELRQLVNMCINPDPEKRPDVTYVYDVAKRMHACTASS

Row | Compound | IC50 [1] | IC50 (IL-1β release)
1 | CN1CCN(Cc2ccc(NC(=O)Nc3ccc(-c4nn(CC(C)(C)O)c5ncnc(N)c45)cc3F)cc2C(F)(F)F)CC1 [Example I-29, 1-(4-(4-amino-1-(2-hydroxy-2-methylpropyl)-1H-pyrazolo[3,4-d]pyrimidin-3-yl)-2-fluorophenyl)-3-(4-((4-methylpiperazin-1-yl)methyl)-3-(trifluoromethyl)phenyl)urea] | < 100 nM | < 50 nM
2 | CN1CCN(Cc2ccc(NC(=O)Nc3ccc(-c4cn(C)c5ncnc(N)c45)cc3F)cc2C(F)(F)F)CC1 [Example I-18, 1-(4-(4-amino-7-methyl-7H-pyrrolo[2,3-d]pyrimidin-5-yl)-2-fluorophenyl)-3-(4-((4-methylpiperazin-1-yl)methyl)-3-(trifluoromethyl)phenyl)urea] | < 100 nM | < 50 nM
3 | CN1CCN(Cc2ccc(NC(=O)Nc3ccc(-c4nn(C5CC5)c5ncnc(N)c45)cc3F)cc2C(F)(F)F)CC1 [Example I-28, 1-(4-(4-amino-1-cyclopropyl-1H-pyrazolo[3,4-d]pyrimidin-3-yl)-2-fluorophenyl)-3-(4-((4-methylpiperazin-1-yl)methyl)-3-(trifluoromethyl)phenyl)urea] | < 100 nM | < 50 nM
4 | CN(C)C1CCN(Cc2ccc(NC(=O)Nc3ccc(-c4cn(C5CC5)c5ncnc(N)c45)cc3F)cc2C(F)(F)F)C1 (centres unmarked) [Example I-45, 1-(4-(4-amino-7-cyclopropyl-7H-pyrrolo[2,3-d]pyrimidin-5-yl)-2-fluorophenyl)-3-(4-((3-(dimethylamino)pyrrolidin-1-yl)methyl)-3-(trifluoromethyl)phenyl)urea] | < 100 nM | < 50 nM
5 | CN1CCN(C(=O)c2ccc(NC(=O)Nc3ccc(-c4cn(C5CC5)c5ncnc(N)c45)cc3F)cc2C(F)(F)F)CC1 [Example I-10] | 100 to 500 nM | 50 to 250 nM
6 | CCN1CCN(Cc2ccc(NC(=O)Nc3ccc(-c4nn(C5CC5)c5ncnc(N)c45)cc3F)cc2C(F)(F)F)CC1 [Example I-50, 1-(4-(4-amino-1-cyclopropyl-1H-pyrazolo[3,4-d]pyrimidin-3-yl)-2-fluorophenyl)-3-(4-((4-ethylpiperazin-1-yl)methyl)-3-(trifluoromethyl)phenyl)urea] | < 100 nM | < 50 nM
7 | CN1CCN(Cc2ccc(NC(=O)Nc3ccc(-c4cn(C5CC5)c5ncnc(N)c45)cc3F)cc2C(F)(F)F)CC1 [Example I-34, 1-(4-(4-amino-7-cyclopropyl-7H-pyrrolo[2,3-d]pyrimidin-5-yl)-2-fluorophenyl)-3-(4-((4-methylpiperazin-1-yl)methyl)-3-(trifluoromethyl)phenyl)urea] | < 100 nM | < 50 nM
8 | CN1CCN(C(=O)c2ccc(NC(=O)Nc3ccc(-c4nn(C5CC5)c5ncnc(N)c45)cc3F)cc2C(F)(F)F)CC1 [Example I-49, 1-(4-(4-amino-1-cyclopropyl-1H-pyrazolo[3,4-d]pyrimidin-3-yl)-2-fluorophenyl)-3-(4-(4-methylpiperazine-1-carbonyl)-3-(trifluoromethyl)phenyl)urea] | 100 to 500 nM | 50 to 250 nM
9 | COCCN1CCN(Cc2ccc(NC(=O)Nc3ccc(-c4cn(C5CC5)c5ncnc(N)c45)cc3F)cc2C(F)(F)F)CC1 [Example I-43, 1-(4-(4-amino-7-cyclopropyl-7H-pyrrolo[2,3-d]pyrimidin-5-yl)-2-fluorophenyl)-3-(4-((4-(2-methoxyethyl)piperazin-1-yl)methyl)-3-(trifluoromethyl)phenyl)urea] | < 100 nM | 50 to 250 nM
10 | CN1CCN(Cc2ccc(NC(=O)Nc3ccc(-c4nn(C5CC5)c5ccnc(N)c45)cc3F)cc2C(F)(F)F)CC1 [Example I-31, 1-(4-(4-amino-1-cyclopropyl-1H-pyrazolo[4,3-c]pyridin-3-yl)-2-fluorophenyl)-3-(4-((4-methylpiperazin-1-yl)methyl)-3-(trifluoromethyl)phenyl)urea] | < 100 nM | < 50 nM
11 | CN1CCN(Cc2ccc(NC(=O)Nc3ccc(-c4cn(C5CCN(C)C5)c5ncnc(N)c45)cc3F)cc2C(F)(F)F)CC1 (centres unmarked) [Example I-20, 1-(4-(4-amino-7-(1-methylpyrrolidin-3-yl)-7H-pyrrolo[2,3-d]pyrimidin-5-yl)-2-fluorophenyl)-3-(4-((4-methylpiperazin-1-yl)methyl)-3-(trifluoromethyl)phenyl)urea] | < 100 nM | < 50 nM

Now from value to molecule:

Row | IC50 [1] | IC50 (IL-1β release) | Compound
12 | 100 to 500 nM | 50 to 250 nM | Nc1ncnc2c1c(-c1ccc(NC(=O)Nc3ccc(OC4CCN(C5COC5)CC4)c(C(F)(F)F)c3)c(F)c1)cn2C1CC1 [Example I-83, 1-(4-(4-amino-7-cyclopropyl-7H-pyrrolo[2,3-d]pyrimidin-5-yl)-2-fluorophenyl)-3-(4-((1-(oxetan-3-yl)piperidin-4-yl)oxy)-3-(trifluoromethyl)phenyl)urea]
13 | < 100 nM | < 50 nM | Nc1ncnc2c1c(-c1ccc(NC(=O)Nc3ccc(CN4CCN(CCF)CC4)c(C(F)(F)F)c3)c(F)c1)cn2C1CC1 [Example I-84, 1-(4-(4-amino-7-cyclopropyl-7H-pyrrolo[2,3-d]pyrimidin-5-yl)-2-fluorophenyl)-3-(4-((4-(2-fluoroethyl)piperazin-1-yl)methyl)-3-(trifluoromethyl)phenyl)urea]
14 | 100 to 500 nM | > 1000 nM | Nc1ncnc2c1c(-c1ccc(NC(=O)Nc3ccc(CN4CCC(N)CC4)c(C(F)(F)F)c3)c(F)c1)cn2C1CC1 [Example I-75, 1-(4-(4-amino-7-cyclopropyl-7H-pyrrolo[2,3-d]pyrimidin-5-yl)-2-fluorophenyl)-3-(4-((4-aminopiperidin-1-yl)methyl)-3-(trifluoromethyl)phenyl)urea]
15 | < 100 nM | < 50 nM | CN1CCC(Oc2ccc(NC(=O)Nc3ccc(-c4cn(C5CC5)c5ncnc(N)c45)cc3F)cc2C(F)(F)F)C(F)C1 (single isomer, unassigned) [Example I-90, 1-(4-(4-amino-7-cyclopropyl-7H-pyrrolo[2,3-d]pyrimidin-5-yl)-2-fluorophenyl)-3-(4-((3-fluoro-1-methylpiperidin-4-yl)oxy)-3-(trifluoromethyl)phenyl)urea]
16 | < 100 nM | 50 to 250 nM | CS(=O)(=O)CCN1CCN(Cc2ccc(NC(=O)Nc3ccc(-c4cn(C5CC5)c5ncnc(N)c45)cc3F)cc2C(F)(F)F)CC1 [Example I-99, 1-(4-(4-amino-7-cyclopropyl-7H-pyrrolo[2,3-d]pyrimidin-5-yl)-2-fluorophenyl)-3-(4-((4-(2-(methylsulfonyl)ethyl)piperazin-1-yl)methyl)-3-(trifluoromethyl)phenyl)urea]
17 | < 100 nM | 50 to 250 nM | Nc1ncnc2c1c(-c1ccc(NC(=O)Nc3ccc(CN4CCNCC4)c(C(F)(F)F)c3)c(F)c1)cn2C1CC1 [Example I-79, 1-(4-(4-amino-7-cyclopropyl-7H-pyrrolo[2,3-d]pyrimidin-5-yl)-2-fluorophenyl)-3-(4-(piperazin-1-ylmethyl)-3-(trifluoromethyl)phenyl)urea]
18 | < 100 nM | > 1000 nM | CN1CCN(Cc2cc(NC(=O)Nc3ccc(-c4nn(C5CC5)c5ncnc(N)c45)cc3F)cc(C(F)(F)F)c2)CC1 [Example I-87, 1-(4-(4-amino-1-cyclopropyl-1H-pyrazolo[3,4-d]pyrimidin-3-yl)-2-fluorophenyl)-3-(3-((4-methylpiperazin-1-yl)methyl)-5-(trifluoromethyl)phenyl)urea]
19 | < 100 nM | 50 to 250 nM | CN1CCN(Cc2ccc(NC(=O)Nc3ccc(-c4nn(CCO)c5ncnc(N)c45)cc3F)cc2C(F)(F)F)CC1 [Example I-76, 1-(4-(4-amino-1-(2-hydroxyethyl)-1H-pyrazolo[3,4-d]pyrimidin-3-yl)-2-fluorophenyl)-3-(4-((4-methylpiperazin-1-yl)methyl)-3-(trifluoromethyl)phenyl)urea]
20 | < 100 nM | > 1000 nM | Nc1ncnc2c1c(-c1ccc(NC(=O)Nc3ccc(CN4CCN(CCS(=O)(=O)O)CC4)c(C(F)(F)F)c3)c(F)c1)cn2C1CC1 [Example I-100, 2-(4-(4-(3-(4-(4-amino-7-cyclopropyl-7H-pyrrolo[2,3-d]pyrimidin-5-yl)-2-fluorophenyl)ureido)-2-(trifluoromethyl)benzyl)piperazin-1-yl)ethane-1-sulfonic acid]
21 | < 100 nM | < 50 nM | COCCn1nc(-c2ccc(NC(=O)Nc3ccc(CN4CCN(C)CC4)c(C(F)(F)F)c3)c(F)c2)c2c(N)ncnc21 [Example I-77, 1-(4-(4-amino-1-(2-methoxyethyl)-1H-pyrazolo[3,4-d]pyrimidin-3-yl)-2-fluorophenyl)-3-(4-((4-methylpiperazin-1-yl)methyl)-3-(trifluoromethyl)phenyl)urea]
22 | < 100 nM | 50 to 250 nM | CN1CCN(Cc2ccc(NC(=O)Nc3ccc(-c4cn(C5CCN(S(=O)(=O)C6CC6)CC5)c5ncnc(N)c45)cc3F)cc2C(F)(F)F)CC1 [Example I-102, 1-(4-(4-amino-7-(1-(cyclopropylsulfonyl)piperidin-4-yl)-7H-pyrrolo[2,3-d]pyrimidin-5-yl)-2-fluorophenyl)-3-(4-((4-methylpiperazin-1-yl)methyl)-3-(trifluoromethyl)phenyl)urea]
